Measurements as given in patent publication US10681909B2, “Herbicidal triazoles” (FMC Corporation, priority 2014, dated 2020).

Columns and labels:
ragweed [1] = assay: Test E preemergence; assay type: in vivo, Ambrosia elatior; settings: scale 0 to 100
Description: (§1) Seeds of plant species selected from corn (Zea mays), soybean (Glycine max), lambsquarters (Chenopodium album), poinsettia, wild (wild poinsettia, Euphorbia heterophylla), pigweed, palmer (palmer pigweed, Amaranthus palmeri), waterhemp (common waterhemp, Amaranthus rudis), surinam grass (Brachiaria decumbens), crabgrass, large (large crabgrass, Digitaria sanguinalis), crabgrass, Brazilian (Brazilian crabgrass, Digitaria horizontalis), panicum, fall (fall panicum, Panicum dichotomiflorum), foxtail, giant (giant foxtail, Setaria faberii), foxtail, green (green foxtail, Setaria viridis), goosegrass (Eleusine indica), johnsongrass (Sorghum halepense), ragweed (common ragweed, Ambrosia elatior), barnyardgrass (Echinochloa crus-galli), sandbur (southern sandbur, Cenchrus echinatus), arrowleaf sida (Sida rhombifolia), ryegrass, Italian (Italian ryegrass, Lolium multiflorum), dayflower, VA (Virginia dayflower, Commelina virginica), field bindweed (Convolvulus arvensis), cocklebur (common cocklebur, Xanthium strumarium), morningglory (Ipomoea coccinea), nightshade (eastern black nightshade, Solanum ptycanthum), kochia (Kochia scoparia), nutsedge, yellow (yellow nutsedge, Cyperus esculentus), smartweed (ladysthumb smartweed, Polygonum persicaria), velvetleaf (Abutilon theophrasti), horseweed (Conyza canadensis), and beggarticks (hairy beggarticks, Bidens pilosa), were planted into a silt loam soil and treated preemergence with test chemicals formulated in a non-phytotoxic solvent mixture which included a surfactant.
(§2) At the same time, plants from these crop and weed species and also waterhemp_RES1, (ALS & Triazine resistant common waterhemp, Amaranthus rudis), and waterhemp_RES2, (ALS & HPPD resistant common waterhemp, Amaranthus rudis) were planted in pots containing Sunshine Redi-Earth® planting medium comprising spaghnum peat moss, vermiculite, starter nutrients and dolomitic limestone were treated with postemergence applications of test chemicals formulated in the same manner. Plants ranged in height from 2 to 18 cm for postemergence treatments (1- to 4-leaf stage). Treated plants and controls were maintained in a greenhouse for 14 to 21 d, after which time all species were compared to controls and visually evaluated. Plant response ratings, summarized in Table E, are based on a scale of 0 to 100 where 0 is no effect and 100 is complete control. A dash (-) response means no test result.

soybean = assay: Test E preemergence; assay type: in vivo, Glycine max; settings: scale 0 to 100
Description: as §1, §2

sandbur = assay: Test E preemergence; assay type: in vivo, Cenchrus echinatus; settings: scale 0 to 100
Description: as §1, §2

crabgrass, large = assay: Test E preemergence; assay type: in vivo, Digitaria sanguinalis; settings: scale 0 to 100
Description: as §1, §2

lambsquarters = assay: Test E preemergence; assay type: in vivo, Chenopodium album; settings: scale 0 to 100
Description: as §1, §2

dayflower, VA = assay: Test E postemergence; assay type: in vivo, Commelina virginica; settings: scale 0 to 100
Description: as §1, §2

kochia = assay: Test E preemergence; assay type: in vivo, Kochia scoparia; settings: scale 0 to 100
Description: as §1, §2

morningglory = assay: Test E preemergence; assay type: in vivo, Ipomoea coccinea; settings: scale 0 to 100
Description: as §1, §2

pigweed, palmer = assay: Test E postemergence; assay type: in vivo, Amaranthus palmeri; settings: scale 0 to 100
Description: as §1, §2

field bindweed [2] = assay: Test E postemergence; assay type: in vivo, Convolvulus arvensis; settings: scale 0 to 100
Description: as §1, §2

johnsongrass = assay: Test E preemergence; assay type: in vivo, Sorghum halepense; settings: scale 0 to 100
Description: as §1, §2

crabgrass, Brazilian = assay: Test E postemergence; assay type: in vivo, Digitaria horizontalis; settings: Brazil, scale 0 to 100
Description: as §1, §2

field bindweed [3] = assay: Test E preemergence; assay type: in vivo, Convolvulus arvensis; settings: scale 0 to 100
Description: as §1, §2

panicum, fall = assay: Test E preemergence; assay type: in vivo, Panicum dichotomiflorum; settings: scale 0 to 100
Description: as §1, §2

nightshade = assay: Test E preemergence; assay type: in vivo, Solanum ptycanthum; settings: scale 0 to 100
Description: as §1, §2

corn = assay: Test E preemergence; assay type: in vivo, Zea mays; settings: scale 0 to 100
Description: as §1, §2

ryegrass, Italian = assay: Test E preemergence; assay type: in vivo, Lolium multiflorum; settings: scale 0 to 100
Description: as §1, §2

waterhemp = assay: Test E preemergence; assay type: in vivo, Amaranthus rudis; settings: scale 0 to 100
Description: as §1, §2

arrowleaf sida = assay: Test E preemergence; assay type: in vivo, Sida rhombifolia; settings: scale 0 to 100
Description: as §1, §2

ragweed [4] = assay: Test E postemergence; assay type: in vivo, Ambrosia elatior; settings: scale 0 to 100
Description: as §1, §2

Measured: Plant response rating

CCc1nc(-c2ccc(C(F)(F)F)cc2)nn1Cc1ccnc(C(F)(F)F)c1 [Compound 1, 4-[[5-ethyl-3-[4-(trifluoromethyl)phenyl]-1H-1,2,4-triazol-1-yl]methyl]-2-(trifluoromethyl)pyridine]
55: field bindweed [2]; 31 g ai/ha
65: ragweed [1]; 125 g ai/ha | lambsquarters; 31 g ai/ha | field bindweed [2]; 62 g ai/ha | field bindweed [2]; 125 g ai/ha
80: crabgrass, large; 62 g ai/ha | kochia; 62 g ai/ha | pigweed, palmer; 16 g ai/ha | panicum, fall; 62 g ai/ha
50: sandbur; 250 g ai/ha | dayflower, VA; 125 g ai/ha | dayflower, VA; 250 g ai/ha | johnsongrass; 125 g ai/ha | field bindweed [3]; 250 g ai/ha | nightshade; 16 g ai/ha | arrowleaf sida; 250 g ai/ha
40: sandbur; 125 g ai/ha | dayflower, VA; 62 g ai/ha | morningglory; 31 g ai/ha | field bindweed [2]; 16 g ai/ha | johnsongrass; 62 g ai/ha | crabgrass, Brazilian; 250 g ai/ha | field bindweed [3]; 125 g ai/ha | ryegrass, Italian; 250 g ai/ha
20: sandbur; 62 g ai/ha | dayflower, VA; 16 g ai/ha | kochia; 16 g ai/ha | crabgrass, Brazilian; 16 g ai/ha | crabgrass, Brazilian; 31 g ai/ha | ryegrass, Italian; 62 g ai/ha | ryegrass, Italian; 125 g ai/ha | waterhemp; 16 g ai/ha | arrowleaf sida; 62 g ai/ha | arrowleaf sida; 125 g ai/ha
60: crabgrass, large; 16 g ai/ha | kochia; 31 g ai/ha | morningglory; 125 g ai/ha | johnsongrass; 250 g ai/ha | panicum, fall; 31 g ai/ha
90: lambsquarters; 62 g ai/ha | kochia; 125 g ai/ha | pigweed, palmer; 31 g ai/ha | pigweed, palmer; 62 g ai/ha | nightshade; 125 g ai/ha
0: ragweed [1]; 16 g ai/ha | soybean; 16 g ai/ha | soybean; 31 g ai/ha | soybean; 62 g ai/ha | sandbur; 16 g ai/ha | field bindweed [3]; 16 g ai/ha | corn; 16 g ai/ha | corn; 31 g ai/ha | ryegrass, Italian; 16 g ai/ha | ryegrass, Italian; 31 g ai/ha | arrowleaf sida; 16 g ai/ha
30: crabgrass, Brazilian; 62 g ai/ha | crabgrass, Brazilian; 125 g ai/ha | field bindweed [3]; 62 g ai/ha
95: crabgrass, large; 125 g ai/ha | lambsquarters; 125 g ai/ha | lambsquarters; 250 g ai/ha | kochia; 250 g ai/ha | nightshade; 250 g ai/ha | waterhemp; 31 g ai/ha | waterhemp; 62 g ai/ha
75: ragweed [1]; 250 g ai/ha | crabgrass, large; 31 g ai/ha | field bindweed [2]; 250 g ai/ha | nightshade; 62 g ai/ha
15: johnsongrass; 31 g ai/ha | panicum, fall; 16 g ai/ha
35: ragweed [1]; 62 g ai/ha | soybean; 250 g ai/ha | corn; 250 g ai/ha
25: dayflower, VA; 31 g ai/ha | corn; 125 g ai/ha
10: ragweed [1]; 31 g ai/ha | soybean; 125 g ai/ha | sandbur; 31 g ai/ha | lambsquarters; 16 g ai/ha | morningglory; 16 g ai/ha | johnsongrass; 16 g ai/ha | field bindweed [3]; 31 g ai/ha | corn; 62 g ai/ha | arrowleaf sida; 31 g ai/ha
100: crabgrass, large; 250 g ai/ha | morningglory; 250 g ai/ha | pigweed, palmer; 125 g ai/ha | pigweed, palmer; 250 g ai/ha | panicum, fall; 125 g ai/ha | panicum, fall; 250 g ai/ha | waterhemp; 125 g ai/ha | waterhemp; 250 g ai/ha

CCOc1nc(-c2ccccc2)nn1Cc1ccnc(C(F)(F)F)c1 [Compound 27]
25: morningglory; 31 g ai/ha | corn; 62 g ai/ha
35: ragweed [1]; 31 g ai/ha | sandbur; 16 g ai/ha | sandbur; 31 g ai/ha | morningglory; 62 g ai/ha | morningglory; 125 g ai/ha
98: sandbur; 125 g ai/ha | crabgrass, large; 16 g ai/ha | pigweed, palmer; 16 g ai/ha | pigweed, palmer; 31 g ai/ha | pigweed, palmer; 125 g ai/ha | nightshade; 62 g ai/ha
90: ragweed [1]; 62 g ai/ha | kochia; 31 g ai/ha | field bindweed [3]; 125 g ai/ha | arrowleaf sida; 125 g ai/ha
40: crabgrass, Brazilian; 125 g ai/ha
50: ragweed [1]; 16 g ai/ha | ragweed [4]; 16 g ai/ha | ragweed [4]; 31 g ai/ha | ragweed [4]; 62 g ai/ha | dayflower, VA; 16 g ai/ha | field bindweed [2]; 16 g ai/ha | nightshade; 31 g ai/ha | corn; 125 g ai/ha
95: johnsongrass; 31 g ai/ha | ryegrass, Italian; 125 g ai/ha
65: kochia; 16 g ai/ha | panicum, fall; 16 g ai/ha
60: ragweed [4]; 125 g ai/ha | dayflower, VA; 31 g ai/ha | field bindweed [2]; 31 g ai/ha | field bindweed [3]; 62 g ai/ha | ryegrass, Italian; 62 g ai/ha
80: ragweed [1]; 125 g ai/ha | lambsquarters; 16 g ai/ha | field bindweed [2]; 125 g ai/ha
100: crabgrass, large; 31 g ai/ha | crabgrass, large; 62 g ai/ha | crabgrass, large; 125 g ai/ha | lambsquarters; 31 g ai/ha | lambsquarters; 62 g ai/ha | lambsquarters; 125 g ai/ha | kochia; 62 g ai/ha | kochia; 125 g ai/ha | pigweed, palmer; 62 g ai/ha | johnsongrass; 16 g ai/ha | johnsongrass; 62 g ai/ha | johnsongrass; 125 g ai/ha | panicum, fall; 31 g ai/ha | panicum, fall; 62 g ai/ha | panicum, fall; 125 g ai/ha | nightshade; 125 g ai/ha | waterhemp; 16 g ai/ha | waterhemp; 31 g ai/ha | waterhemp; 62 g ai/ha | waterhemp; 125 g ai/ha
15: soybean; 125 g ai/ha | morningglory; 16 g ai/ha
70: dayflower, VA; 62 g ai/ha | field bindweed [2]; 62 g ai/ha
20: crabgrass, Brazilian; 16 g ai/ha | crabgrass, Brazilian; 31 g ai/ha | ryegrass, Italian; 31 g ai/ha | arrowleaf sida; 16 g ai/ha | arrowleaf sida; 31 g ai/ha
75: sandbur; 62 g ai/ha | dayflower, VA; 125 g ai/ha | arrowleaf sida; 62 g ai/ha
30: crabgrass, Brazilian; 62 g ai/ha
0: soybean; 16 g ai/ha | soybean; 31 g ai/ha | soybean; 62 g ai/ha | field bindweed [3]; 16 g ai/ha | field bindweed [3]; 31 g ai/ha | nightshade; 16 g ai/ha | corn; 16 g ai/ha | corn; 31 g ai/ha | ryegrass, Italian; 16 g ai/ha

COc1nc(-c2ccc(Cl)cc2)nn1Cc1ccnc(C(F)(F)F)c1 [Compound 28]
100: pigweed, palmer; 31 g ai/ha
80: field bindweed [2]; 125 g ai/ha | field bindweed [2]; 250 g ai/ha
70: dayflower, VA; 62 g ai/ha | dayflower, VA; 125 g ai/ha | dayflower, VA; 250 g ai/ha
60: dayflower, VA; 31 g ai/ha
75: field bindweed [2]; 62 g ai/ha
50: ragweed [4]; 250 g ai/ha | field bindweed [2]; 31 g ai/ha | crabgrass, Brazilian; 62 g ai/ha | crabgrass, Brazilian; 125 g ai/ha | crabgrass, Brazilian; 250 g ai/ha
95: pigweed, palmer; 250 g ai/ha
40: ragweed [4]; 31 g ai/ha | ragweed [4]; 62 g ai/ha | ragweed [4]; 125 g ai/ha | crabgrass, Brazilian; 31 g ai/ha
90: pigweed, palmer; 62 g ai/ha | pigweed, palmer; 125 g ai/ha
